Results on 21 compounds are retold here after ChEMBL document CHEMBL3045695, “2D and 3D QSAR analyses to predict favorable substitution sites in anilino-monoindolylmaleimides acting as PKCII selective inhibitors” (Med Chem Res, 2011).

Structures are written as SMILES.

In this test the target is Protein kinase C beta type (Homo sapiens, UniProt P05771). Put plainly: Inhibition of PKCbeta2 (unknown origin).
Chain of Protein kinase C beta type (P05771 whole entry): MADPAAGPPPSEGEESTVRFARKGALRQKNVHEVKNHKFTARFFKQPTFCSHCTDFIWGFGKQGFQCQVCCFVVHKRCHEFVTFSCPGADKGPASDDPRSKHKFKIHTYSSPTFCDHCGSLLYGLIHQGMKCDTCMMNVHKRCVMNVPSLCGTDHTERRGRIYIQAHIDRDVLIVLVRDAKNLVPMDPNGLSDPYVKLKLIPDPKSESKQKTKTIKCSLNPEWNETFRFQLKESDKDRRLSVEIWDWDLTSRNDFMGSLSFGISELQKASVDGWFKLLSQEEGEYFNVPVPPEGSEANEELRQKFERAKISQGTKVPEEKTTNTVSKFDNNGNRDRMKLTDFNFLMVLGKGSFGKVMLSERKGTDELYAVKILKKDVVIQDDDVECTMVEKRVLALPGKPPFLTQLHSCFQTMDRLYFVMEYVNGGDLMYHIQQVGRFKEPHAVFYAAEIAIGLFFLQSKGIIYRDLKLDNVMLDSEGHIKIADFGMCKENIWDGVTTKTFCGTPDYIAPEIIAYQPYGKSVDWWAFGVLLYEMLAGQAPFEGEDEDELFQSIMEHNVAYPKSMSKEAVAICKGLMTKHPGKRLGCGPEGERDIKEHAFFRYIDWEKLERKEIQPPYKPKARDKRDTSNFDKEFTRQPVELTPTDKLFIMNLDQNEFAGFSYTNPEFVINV

As for `CN1CCN(CCCn2cc(C3=C(Nc4ccccc4)C(=O)NC3=O)c3ccccc32)CC1`, the IC50 (read-out: pIC50 (converted)) is 0.0234 µM. The same measure, in the same setting: the figure for `CN(C)CCCCCn1cc(C2=C(Nc3ccccc3)C(=O)NC2=O)c2ccccc21` is 0.0417 µM; for `COc1cccc(NC2=C(c3c[nH]c4ccccc34)C(=O)NC2=O)c1` it is 0.759 µM. For the compound `Cc1ccc(NC2=C(c3c[nH]c4ccccc34)C(=O)NC2=O)cc1`, under “read-out: pIC50 (converted)”, the IC50 is 0.49 µM.

Regarding `O=C1NC(=O)C(c2cn(CCCN3CCCCC3)c3ccccc23)=C1Nc1ccccc1`, the IC50 (read-out: pIC50 (converted)) is 0.0174 µM.

On to `CCNC[C@H]1Cc2c(C3=C(Nc4ccccc4)C(=O)NC3=O)c3ccccc3n2C1`, for which the IC50 (read-out: IC50) amounted to 0.0024 µM.

Regarding `NC[C@H]1Cc2c(C3=C(Nc4ccccc4)C(=O)NC3=O)c3ccccc3n2C1`, where the note is “read-out: IC50”, the IC50 turned out to be 0.0014 µM. The same measure, in the same setting: under `CC(=O)NC[C@H]1Cc2c(C3=C(Nc4ccccc4)C(=O)NC3=O)c3ccccc3n2C1` stands 0.0079 µM; under `O=C1NC(=O)C(c2c3n(c4ccccc24)C[C@H](CO)C3)=C1Nc1ccccc1`, 0.014 µM; under `CN(C)C[C@@H]1Cc2c(C3=C(Nc4ccccc4)C(=O)NC3=O)c3ccccc3n2C1`, 0.008 µM.

For `O=C1NC(=O)C(c2c3n(c4ccccc24)CC[C@H](CO)C3)=C1Nc1ccccc1`, the IC50 (read-out: IC50) worked out at 0.006 µM. On the same count and under the same terms, the figure for `CN(C)C[C@H]1CCn2c(c(C3=C(Nc4ccccc4)C(=O)NC3=O)c3ccccc32)C1` is 0.002 µM; for `O=C1NC(=O)C(c2c3n(c4ccccc24)CC[C@@H](CO)C3)=C1Nc1ccccc1` it is 0.017 µM. Same read-out and setting: under `CN(C)C[C@@H]1CCn2c(c(C3=C(Nc4ccccc4)C(=O)NC3=O)c3ccccc32)C1` stands 0.025 µM.

For the compound `CN(C)C[C@@H]1CCc2c(C3=C(Nc4ccccc4)C(=O)NC3=O)c3ccccc3n2C1`, under “read-out: IC50”, the IC50 is 0.006 µM. The same measure, in the same setting: under `CCN(CC)C[C@H]1Cc2c(C3=C(Nc4ccccc4)C(=O)NC3=O)c3ccccc3n2C1` stands 0.032 µM; under `CCN(C)C[C@H]1Cc2c(C3=C(Nc4ccccc4)C(=O)NC3=O)c3ccccc3n2C1`, 0.005 µM. The same measure, in the same setting: the figure for `CNC[C@H]1Cc2c(C3=C(Nc4ccccc4)C(=O)NC3=O)c3ccccc3n2C1` is 0.0022 µM. Turning to `O=C1NC(=O)C(c2c[nH]c3ccccc23)=C1Nc1cccc(C(F)(F)F)c1`, the IC50 (read-out: pIC50 (converted)) is 1.48 µM. The same measure, in the same setting: under `Cc1ccccc1NC1=C(c2c[nH]c3ccccc23)C(=O)NC1=O` stands 2.19 µM; under `N=C(N)SCCCn1cc(C2=C(Nc3ccccc3)C(=O)NC2=O)c2ccccc21`, 0.00204 µM.
